Measurements as given in ChEMBL document CHEMBL3132815, “Design, synthesis and activities of 4/5-acyl-2-aminoimidazolyl analogues of oroidin for biofilm inhibition” (Medchemcomm, 2013).

Each compound was assayed on Staphylococcus aureus (assay: Antibiofilm activity against Staphylococcus aureus ATCC 35556 assessed as inhibition of biofilm formation at 50 ug/ml). Settings: not given.
Assay type: functional

Row | Compound | inhibition at 50 µg/mL
1 | O=C(NC/C=C/c1cnc2ncccn12)c1cc(Br)c[nH]1 | -5.5%
2 | O=C(NCC(O)c1cnc2ncccn12)c1cc(Br)c(Br)[nH]1 (stereo not given) | -4.41%
3 | O=C(NCC(=O)c1cnc2ncccn12)c1cc(Br)c[nH]1 | -8.17%
4 | O=C(NCC(O)c1cnc2ncccn12)c1ccc[nH]1 (stereo not given) | -1.6%
5 | O=C(NCC(O)c1cnc2ncccn12)c1cc(Br)c[nH]1 (stereo not given) | -8.17%

The compounds below were run on Staphylococcus aureus (assay: Antibiofilm activity against methicillin-resistant Staphylococcus aureus assessed as inhibition of biofilm formation at 50 ug/ml). Settings: not given.
Assay type: functional

Row | Compound | inhibition at 50 µg/mL
6 | O=C(NC/C=C/c1cnc2ncccn12)c1cc(Br)c[nH]1 | -108%
7 | O=C(NCC(O)c1cnc2ncccn12)c1cc(Br)c(Br)[nH]1 (stereo not given) | -124%
8 | O=C(NCC(=O)c1cnc2ncccn12)c1cc(Br)c[nH]1 | -124%
9 | O=C(NCC(O)c1cnc2ncccn12)c1ccc[nH]1 (stereo not given) | 16.9%
10 | O=C(NCC(O)c1cnc2ncccn12)c1cc(Br)c[nH]1 (stereo not given) | -127%

These compounds were tested on Staphylococcus epidermidis (assay: Antibiofilm activity against Staphylococcus epidermidis GTC 18972 assessed as inhibition of biofilm formation at 50 ug/ml). Settings: not given.
Assay type: functional

Row | Compound | inhibition at 50 µg/mL
11 | O=C(NC/C=C/c1cnc2ncccn12)c1cc(Br)c[nH]1 | -1.8%
12 | O=C(NCC(O)c1cnc2ncccn12)c1cc(Br)c(Br)[nH]1 (stereo not given) | -9.35%
13 | O=C(NCC(=O)c1cnc2ncccn12)c1cc(Br)c[nH]1 | -9.93%
14 | O=C(NCC(O)c1cnc2ncccn12)c1ccc[nH]1 (stereo not given) | -16.8%
15 | O=C(NCC(O)c1cnc2ncccn12)c1cc(Br)c[nH]1 (stereo not given) | -9.3%

Each compound was assayed on Staphylococcus aureus (assay: Antibacterial activity against methicillin-resistant Staphylococcus aureus 1094 assessed as planktonic growth at 50 ug/ml). Settings: not given.
Assay type: organism-based

Row | Compound | Activity
16 | O=C(NC/C=C/c1cnc2ncccn12)c1cc(Br)c[nH]1 | -8.7%
17 | O=C(NCC(O)c1cnc2ncccn12)c1cc(Br)c(Br)[nH]1 (stereo not given) | 6.37%
18 | O=C(NCC(=O)c1cnc2ncccn12)c1cc(Br)c[nH]1 | 16.74%
19 | O=C(NCC(O)c1cnc2ncccn12)c1ccc[nH]1 (stereo not given) | 10.52%
20 | O=C(NCC(O)c1cnc2ncccn12)c1cc(Br)c[nH]1 (stereo not given) | 5.81%

What follows are compounds tested on Staphylococcus aureus (assay: Antibacterial activity against Staphylococcus aureus ATCC 35556 assessed as planktonic growth at 50 ug/ml). Settings: not given.
Assay type: organism-based

Row | Compound | Activity
21 | O=C(NC/C=C/c1cnc2ncccn12)c1cc(Br)c[nH]1 | 8.6%
22 | O=C(NCC(O)c1cnc2ncccn12)c1cc(Br)c(Br)[nH]1 (stereo not given) | -6.51%
23 | O=C(NCC(=O)c1cnc2ncccn12)c1cc(Br)c[nH]1 | -3.86%
24 | O=C(NCC(O)c1cnc2ncccn12)c1ccc[nH]1 (stereo not given) | 6.67%
25 | O=C(NCC(O)c1cnc2ncccn12)c1cc(Br)c[nH]1 (stereo not given) | 4.97%

What follows are compounds tested on Staphylococcus aureus (assay: Antibacterial activity against methicillin-resistant Staphylococcus aureus assessed as planktonic growth at 50 ug/ml). Settings: in vitro.
Assay type: organism-based

Row | Compound | Activity
26 | O=C(NC/C=C/c1cnc2ncccn12)c1cc(Br)c[nH]1 | -16.4%
27 | O=C(NCC(O)c1cnc2ncccn12)c1cc(Br)c(Br)[nH]1 (stereo not given) | -1.91%
28 | O=C(NCC(=O)c1cnc2ncccn12)c1cc(Br)c[nH]1 | -6.08%
29 | O=C(NCC(O)c1cnc2ncccn12)c1ccc[nH]1 (stereo not given) | 0.95%
30 | O=C(NCC(O)c1cnc2ncccn12)c1cc(Br)c[nH]1 (stereo not given) | -6.08%

Each compound was assayed on Pseudomonas aeruginosa (assay: Antibacterial activity against Pseudomonas aeruginosa PAO1 assessed as planktonic growth at 50 ug/ml). Settings: not given.
Assay type: organism-based

Row | Compound | Activity
31 | O=C(NC/C=C/c1cnc2ncccn12)c1cc(Br)c[nH]1 | -19.9%
32 | O=C(NCC(O)c1cnc2ncccn12)c1cc(Br)c(Br)[nH]1 (stereo not given) | -13.02%
33 | O=C(NCC(=O)c1cnc2ncccn12)c1cc(Br)c[nH]1 | -6.55%
34 | O=C(NCC(O)c1cnc2ncccn12)c1ccc[nH]1 (stereo not given) | -15.89%
35 | O=C(NCC(O)c1cnc2ncccn12)c1cc(Br)c[nH]1 (stereo not given) | -14.84%

The compounds below were run on Pseudomonas aeruginosa (assay: Antibiofilm activity against Pseudomonas aeruginosa PAO1 assessed as inhibition of biofilm formation at 50 ug/ml). Settings: not given.
Assay type: functional

Row | Compound | inhibition at 50 µg/mL
36 | O=C(NC/C=C/c1cnc2ncccn12)c1cc(Br)c[nH]1 | 2.1%
37 | O=C(NCC(O)c1cnc2ncccn12)c1cc(Br)c(Br)[nH]1 (stereo not given) | 8.66%
38 | O=C(NCC(=O)c1cnc2ncccn12)c1cc(Br)c[nH]1 | 27.4%
39 | O=C(NCC(O)c1cnc2ncccn12)c1ccc[nH]1 (stereo not given) | 13.2%
40 | O=C(NCC(O)c1cnc2ncccn12)c1cc(Br)c[nH]1 (stereo not given) | 17%

What follows are compounds tested on Staphylococcus epidermidis (assay: Antibacterial activity against Staphylococcus epidermidis 1457 assessed as planktonic growth at 50 ug/ml). Settings: not given.
Assay type: organism-based

Row | Compound | Activity
41 | O=C(NC/C=C/c1cnc2ncccn12)c1cc(Br)c[nH]1 | -24%
42 | O=C(NCC(O)c1cnc2ncccn12)c1cc(Br)c(Br)[nH]1 (stereo not given) | 9.93%
43 | O=C(NCC(=O)c1cnc2ncccn12)c1cc(Br)c[nH]1 | 13.47%
44 | O=C(NCC(O)c1cnc2ncccn12)c1ccc[nH]1 (stereo not given) | -3.27%
45 | O=C(NCC(O)c1cnc2ncccn12)c1cc(Br)c[nH]1 (stereo not given) | -2.26%

Each compound was assayed on Staphylococcus epidermidis (assay: Antibacterial activity against Staphylococcus epidermidis GTC 18972 assessed as planktonic growth at 50 ug/ml). Settings: not given.
Assay type: organism-based

Row | Compound | Activity
46 | O=C(NC/C=C/c1cnc2ncccn12)c1cc(Br)c[nH]1 | -3.1%
47 | O=C(NCC(O)c1cnc2ncccn12)c1cc(Br)c(Br)[nH]1 (stereo not given) | 15.9%
48 | O=C(NCC(=O)c1cnc2ncccn12)c1cc(Br)c[nH]1 | 19.25%
49 | O=C(NCC(O)c1cnc2ncccn12)c1ccc[nH]1 (stereo not given) | 11.45%
50 | O=C(NCC(O)c1cnc2ncccn12)c1cc(Br)c[nH]1 (stereo not given) | 1.02%

Each compound was assayed on Staphylococcus aureus (assay: Antibiofilm activity against methicillin-resistant Staphylococcus aureus 1094 assessed as inhibition of biofilm formation at 50 ug/ml). Settings: not given.
Assay type: functional

Row | Compound | inhibition at 50 µg/mL
51 | O=C(NC/C=C/c1cnc2ncccn12)c1cc(Br)c[nH]1 | 36%
52 | O=C(NCC(O)c1cnc2ncccn12)c1cc(Br)c(Br)[nH]1 (stereo not given) | 0.13%
53 | O=C(NCC(=O)c1cnc2ncccn12)c1cc(Br)c[nH]1 | 7.07%
54 | O=C(NCC(O)c1cnc2ncccn12)c1ccc[nH]1 (stereo not given) | -25.1%
55 | O=C(NCC(O)c1cnc2ncccn12)c1cc(Br)c[nH]1 (stereo not given) | 22.5%

Each compound was assayed on Staphylococcus epidermidis (assay: Antibiofilm activity against Staphylococcus epidermidis 1457 assessed as inhibition of biofilm formation at 50 ug/ml). Settings: not given.
Assay type: functional

Row | Compound | inhibition at 50 µg/mL
56 | O=C(NC/C=C/c1cnc2ncccn12)c1cc(Br)c[nH]1 | 14%
57 | O=C(NCC(O)c1cnc2ncccn12)c1cc(Br)c(Br)[nH]1 (stereo not given) | 4.48%
58 | O=C(NCC(=O)c1cnc2ncccn12)c1cc(Br)c[nH]1 | 7.83%
59 | O=C(NCC(O)c1cnc2ncccn12)c1ccc[nH]1 (stereo not given) | -1.26%
60 | O=C(NCC(O)c1cnc2ncccn12)c1cc(Br)c[nH]1 (stereo not given) | 2.71%
